Test results taken from publication PMC11173647, “Anti-Inflammatory Activity of Pyrazolo[1,5-a]quinazolines” (Molecules, 2024).
Where two headings read alike, the source gives them in different places.

Columns and labels:
[1] = test system: LPS-induced NF-κB/AP-1 transcriptional activity in THP-1Blue cells; test: LPS-induced NF-κB/AP-1 reporter (secreted alkaline phosphatase) activity in THP-1Blue cells; assay type: cell-based, human; conditions: for inhibitory activity in THP-1Blue cells (in words): LPS-induced NF-κB/AP-1 reporter activity; for IC50: THP-1Blue cells, 30 min pretreatment, 250 ng/mL LPS for 24 h, alkaline phosphatase in supernatant, read-out: AP Production IC50
Procedure: THP-1 cells are a human monocyte cell line that was developed from a monocyte isolated from the peripheral blood of an acute monocytic leukemia patient. This cell line is used as a monocyte/macrophage model in immunology research. The THP-1Blue cells obtained from InvivoGen (San Diego, CA, USA) are THP-1 cells that were stably transfected with a secreted embryonic alkaline phosphatase gene that is under control of a NF-κB/AP-1-inducible promoter. For this study, THP-1Blue cells were cultured at 37 °C in a humidified atmosphere containing 5% CO2 in RPMI 1640 medium (Mediatech Inc., Herndon, VA, USA) supplemented with 10% (v/v) fetal bovine serum (FBS), 100 μg/mL streptomycin, 100 U/mL penicillin, 100 μg/mL phleomycin (Zeocin), and 10 μg/mL blasticidin S (all from Sigma-Aldrich, St. Louis, MO, USA).
To measure the activation of AP-1/NF-κB, the THP-1Blue cells (2 × 10^5 cells/well) were pretreated with the test compounds or dimethyl sulfoxide (DMSO; 1% final concentration) for 30 min, followed by the addition of 250 ng/mL of lipopolysaccharide (LPS; from Escherichia coli strain 0111:B4) for 24 h, and alkaline phosphatase activity was measured in the cell supernatants using the QUANTI-Blue mix (InvivoGen) as the absorbance at 655 nm and compared with positive control samples (LPS). The concentration of the compound that caused 50% inhibition of the NF-κB reporter activity (IC50) was calculated.

THP-1Blue cells = test: Cytotoxicity, CellTiter-Glo Luminescent Cell Viability Assay; assay type: cell-based, human; conditions: 24 h, concentrations up to 50 µM
Procedure: Cytotoxicity was analyzed with a CellTiter-Glo Luminescent Cell Viability Assay Kit from Promega (Madison, WI, USA) according to the manufacturer’s protocol. THP-1Blue cells were treated with varying concentrations of the test compounds (up to 50 µM) and cultivated for 24 h. After treatment, the cells were allowed to equilibrate to room temperature for 30 min, the substrate was added, and the samples were analyzed with a Fluoroscan Ascent FL (Thermo Fisher Scientific, Waltham, MA, USA).

Solubility in DMSO = assay type: physicochemical
JNK1 = target: T1, JNK1 (Homo sapiens, UniProt P45983); test: KINOMEscan ATP site-dependent binding assay; conditions: duplicate
T1 construct: purchased Eurofins Pharma Discovery (KINOMEscan)
Procedure: (§1) Binding reactions were performed at room temperature for 1 h, and the fraction of kinase not bound to the test compound was determined by capture with an immobilized affinity ligand and quantified by quantitative polymerase chain reaction. The primary screening at fixed concentrations of the compound was performed in duplicate.

JNK2 = target: T2, JNK2 (Homo sapiens, UniProt P45984); test: KINOMEscan ATP site-dependent binding assay; conditions: duplicate
T2 construct: purchased Eurofins Pharma Discovery (KINOMEscan)
Procedure: as §1

JNK3 = target: T3, JNK3 (Homo sapiens, UniProt P53779); test: KINOMEscan ATP site-dependent binding assay; conditions: duplicate
T3 construct: purchased Eurofins Pharma Discovery (KINOMEscan)
Procedure: as §1

T2 sequence (P45984 whole entry): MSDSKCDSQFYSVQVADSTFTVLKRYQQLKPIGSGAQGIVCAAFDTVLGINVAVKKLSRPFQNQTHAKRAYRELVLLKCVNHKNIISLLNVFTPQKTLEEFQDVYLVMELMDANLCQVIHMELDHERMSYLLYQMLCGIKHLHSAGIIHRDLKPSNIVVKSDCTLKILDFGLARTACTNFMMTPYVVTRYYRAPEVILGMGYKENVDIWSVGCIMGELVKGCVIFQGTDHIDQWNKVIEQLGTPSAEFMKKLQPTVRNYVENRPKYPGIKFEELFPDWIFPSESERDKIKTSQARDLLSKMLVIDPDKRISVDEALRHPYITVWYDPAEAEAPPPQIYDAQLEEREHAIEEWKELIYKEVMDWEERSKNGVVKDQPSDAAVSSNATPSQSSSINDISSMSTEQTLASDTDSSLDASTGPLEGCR
T1 sequence (P45983 whole entry): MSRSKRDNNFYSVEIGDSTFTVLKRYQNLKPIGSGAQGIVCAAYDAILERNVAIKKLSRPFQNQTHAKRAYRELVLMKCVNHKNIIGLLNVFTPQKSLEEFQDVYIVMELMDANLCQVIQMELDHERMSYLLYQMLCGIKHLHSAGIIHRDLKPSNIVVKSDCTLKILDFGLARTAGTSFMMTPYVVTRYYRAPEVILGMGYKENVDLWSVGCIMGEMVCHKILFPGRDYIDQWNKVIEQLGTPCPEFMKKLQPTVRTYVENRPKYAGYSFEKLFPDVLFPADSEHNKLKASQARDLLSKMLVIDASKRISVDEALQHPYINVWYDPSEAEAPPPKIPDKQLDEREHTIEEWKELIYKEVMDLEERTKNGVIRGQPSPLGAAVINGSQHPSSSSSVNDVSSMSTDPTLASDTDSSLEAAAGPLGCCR
T3 sequence (P53779 whole entry): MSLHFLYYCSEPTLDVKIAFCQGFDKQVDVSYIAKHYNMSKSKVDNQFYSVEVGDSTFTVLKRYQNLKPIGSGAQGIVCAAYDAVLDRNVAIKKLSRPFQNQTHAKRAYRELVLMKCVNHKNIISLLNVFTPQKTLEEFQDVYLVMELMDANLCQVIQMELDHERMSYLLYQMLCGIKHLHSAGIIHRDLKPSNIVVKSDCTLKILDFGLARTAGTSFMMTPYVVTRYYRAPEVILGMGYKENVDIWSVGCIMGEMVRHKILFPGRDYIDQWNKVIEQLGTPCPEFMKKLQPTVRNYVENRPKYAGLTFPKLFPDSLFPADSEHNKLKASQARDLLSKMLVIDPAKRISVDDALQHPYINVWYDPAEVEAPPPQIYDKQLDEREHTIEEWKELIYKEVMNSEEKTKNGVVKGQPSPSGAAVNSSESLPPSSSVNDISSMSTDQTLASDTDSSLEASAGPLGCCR

Compound | melting point [°C] | Cytotoxicity (THP-1Blue cells) | also measured
CCOC(=O)c1cnn2c1ncc1c(=O)nc[nH]c12 [53a] | > 300 | – | –
Cc1ccccc1COc1nc2c(C(N)=O)cnn2c2ccccc12 [13g] | 226 to 227 | – | –
5-{[4-(Methanesulfonyl)phenyl]methoxy}-3-(thiophen-3-yl)pyrazolo[1,5-a]quinazoline [compound 20] | – | N.T. (no cytotoxicity was found in THP-1Blue cells at concentrations up to 50 µM) | inhibitory activity in THP-1Blue cells (in words) [1]: moderate activity; IC50 [1]: 13.3 ± 2.6 µM
COc1nc2c(C(N)=O)cnn2c2ccccc12 [13a, 5-Methoxypyrazolo[1,5-a]quinazoline-3-carboxamide] | 246 to 247 | N.T. (no cytotoxicity was found in THP-1Blue cells at concentrations up to 50 µM) | IC50 ([1]; Homo sapiens): 24.4 ± 3.1 µM
Cn1c(=O)c2ccc(N)cc2n2ncc(C#N)c12 [compound 48] | 286 to 288 | – | –
CNc1nc2c(C(N)=O)cnn2c2cc([N+](=O)[O-])ccc12 [compound 43, 5-(Methylamino)-8-nitropyrazolo[1,5-a]quinazoline-3-carboxamide] | > 300 | N.T. (no cytotoxicity was found in THP-1Blue cells at concentrations up to 50 µM) | IC50 ([1]; Homo sapiens): 11.8 ± 2.2 µM
NC(=O)c1cnn2c1nc(OCc1ccc(S(N)(=O)=O)cc1)c1ccc(Cl)cc12 [23c, 8-Chloro-5-(4-sulfamoylbenzyloxy)pyrazolo[1,5-a]quinazoline-3-carboxamide] | – | N.T. (no cytotoxicity was found in THP-1Blue cells at concentrations up to 50 µM) | IC50 ([1]; Homo sapiens): 12.2 ± 2.1 µM
CNc1nc2c(C#N)cnn2c2cc([N+](=O)[O-])ccc12 [42a, 5-(Methylamino)-8-nitropyrazolo[1,5-a]quinazoline-3-carbonitrile] | > 300 | N.T. (no cytotoxicity was found in THP-1Blue cells at concentrations up to 50 µM) | IC50 ([1]; Homo sapiens): 30.1 ± 3.3 µM; inhibitory activity in THP-1Blue cells (in words) [1]: moderate activity
NC(=O)c1cnn2c1nc(OCc1ccc(Br)cc1)c1ccccc12 [13f] | 243 to 244 | – | –
NC(=O)c1cnn2c1nc(OCc1ccccc1)c1ccccc12 [13b, 5-(Benzyloxy)pyrazolo[1,5-a]quinazoline-3-carboxamide] | 208 to 209 | N.T. (no cytotoxicity was found in THP-1Blue cells at concentrations up to 50 µM) | IC50 ([1]; Homo sapiens): 4.81 µM; IC50 [1]: 4.8 ± 1.2 µM; solubility in DMSO (Solubility in DMSO): low solubility in DMSO
N#Cc1cnn2c1[nH]c(=O)c1ccc([N+](=O)[O-])cc12 [2c] | 280 to 283 | – | –
CCOC(=O)c1cnn2c1nc(Nc1ccc(N)cc1)c1cc([N+](=O)[O-])ccc12 [compound 40] | 269 to 271 | – | –
C[S+]([O-])c1ccc(COc2nc3c(C(N)=O)cnn3c3ccccc23)cc1 (stereo not drawn) [compound 16] | 225 to 226 | N.T. (no cytotoxicity was found in THP-1Blue cells at concentrations up to 50 µM) | IC50 ([1]; Homo sapiens): 7.9 ± 1.7 µM; Kd (JNK1): 17 ± 2.1 µM; Kd (JNK2): 21 ± 2.4 µM; Kd (JNK3): 10.4 ± 1.5 µM
COc1cccc(COc2nc3c(C(N)=O)cnn3c3ccccc23)c1 [13h] | 210 to 212 | – | –
Nc1ccccc1COc1nc2c(-c3ccsc3)cnn2c2ccccc12 [21b] | 125 to 126 | – | –
CNc1nc2c(C#N)cnn2c2cc(N)ccc12 [46b] | > 300 | – | –
CNc1nc2c(C(N)=O)cnn2c2cc(N)ccc12 [46c] | > 300 | – | –
CSc1ccc(Cn2c(=O)c3ccccc3n3nccc23)cc1 (hydrate or solvate) [7f] | 137 to 139 | – | –
c1ccc(CNc2nc3c(-c4ccsc4)cnn3c3ccccc23)cc1 [compound 22] | 176 to 177 | – | –
N#Cc1cnn2c1nc(Nc1ccc(N)cc1)c1cc([N+](=O)[O-])ccc12 [42d] | > 295 | – | –
c1ccc(COc2nc3c(-c4ccsc4)cnn3c3ccccc23)cc1 [21a] | 179 to 181 | – | –

Compound | melting point [°C] | Cytotoxicity (THP-1Blue cells) | also measured
NC(=O)c1cnn2c1nc(OCc1ccc(S(N)(=O)=O)cc1)c1ccc(Cl)cc12 (hydrate or solvate) [23c, 8-Chloro-5-(4-sulfamoylbenzyloxy)pyrazolo[1,5-a]quinazoline-3-carboxamide] | 177 to 180 | – | –
CSc1ccc(Cn2c(=O)c3ccccc3n3ncc(C#N)c23)cc1 (hydrate or solvate) [7e] | 189 to 192 | – | –
CCOC(=O)c1cnn2c1[nH]c(=O)c1cc([N+](=O)[O-])ccc12 [4d] | 217 to 220 | – | –
N#Cc1cnn2c1nc(Nc1ccc(N)cc1)c1ccc([N+](=O)[O-])cc12 [42c] | > 295 | – | –
CSc1ccc(Cn2c(=O)c3ccccc3n3ncc(C(N)=O)c23)cc1 [14c] | 276 to 279 | – | –
COc1nc2c(C#N)cnn2c2cc(N)ccc12 [compound 47, 8-amino-5-methoxy-PQ-3-carbonitrile] | > 300 | – | –
COc1ccc2c(c1)-n1ncc(C(=O)NCc3ccccc3)c1NC2 [58c] | – | N.T. (no cytotoxicity was found in THP-1Blue cells at concentrations up to 50 µM) | IC50 ([1]; Homo sapiens): 39.1 µM; IC50 [1]: 34.1 ± 4.1 µM
Cn1c(=O)c2ccc(N)cc2n2ncc(C(N)=O)c12 [compound 49] | > 300 | – | –
CCOC(=O)c1cnn2c1[nH]c(=O)c1ccc([N+](=O)[O-])cc12 [4c] | 195 to 197 | – | –
COc1nc2c(C(N)=O)cnn2c2cc([N+](=O)[O-])ccc12 [33a, 5-Methoxy-8-nitropyrazolo[1,5-a]quinazoline-3-carboxamide] | – | N.T. (no cytotoxicity was found in THP-1Blue cells at concentrations up to 50 µM) | IC50 ([1]; Homo sapiens): 14.1 ± 2.9 µM
COc1nc2c(C(N)=O)cnn2c2cc(N)ccc12 [46a] | > 300 | – | –
NC(=O)c1cnn2c1nc(OCc1cccc(Cl)c1)c1ccccc12 [13e] | 242 to 245 | – | –
CCOC(=O)c1cnn2c3ccccc3c(=O)n(Cc3ccc(S(N)(=O)=O)cc3)c12 [7c] | 224 to 226 | – | –
COc1nc2c(C(N)=O)cnn2c2ccc([N+](=O)[O-])cc12 [33b, 5-Methoxy-7-nitropyrazolo[1,5-a]quinazoline-3-carboxamide] | 269 to 271 | N.T. (no cytotoxicity was found in THP-1Blue cells at concentrations up to 50 µM) | IC50 ([1]; Homo sapiens): 18.2 ± 2.5 µM
N#Cc1cnn2c1[nH]c(=O)c1cc([N+](=O)[O-])ccc12 [2d] | > 295 | – | –
O=c1nc[nH]c2c1cnc1ccnn12 [53b] | > 300 | – | –
NC(=O)c1cnn2c1nc(OCc1ccc(S(N)(=O)=O)cc1)c1ccccc12 [13i, 5-[(4-Sulfamoylbenzyl)oxy]pyrazolo[1,5-a]quinazoline-3-carboxamide] | 167 to 168 | N.T. (no cytotoxicity was found in THP-1Blue cells at concentrations up to 50 µM) | IC50 ([1]; Homo sapiens): 9.7 ± 2.4 µM; Kd (JNK1): 10.9 ± 1.4 µM; Kd (JNK2): 18.5 ± 2.3 µM; Kd (JNK3): 9 ± 1.2 µM
C[S+]([O-])c1ccc(Cn2c(=O)c3ccccc3n3ncc(I)c23)cc1 (stereo not drawn) [compound 9] | 198 to 201 | – | –
CN(C)/C=N/C(=O)c1cnn2c1[nH]c(=O)c1ccc(Cl)cc12 [compound 26, (E)-8-Chloro-N-[(dimethylamino)methylene]-5-oxo-4,5-dihydropyrazolo[1,5-a]quinazoline-3-carboxamide] | 288 to 290 | N.T. (no cytotoxicity was found in THP-1Blue cells at concentrations up to 50 µM) | IC50 ([1]; Homo sapiens): 49.3 ± 4.6 µM
COc1nc2c(C(N)=O)cnn2c2cc(Cl)ccc12 [23a, 8-Chloro-5-methoxypyrazolo[1,5-a]quinazoline-3-carboxamide] | 288 to 290 | N.T. (no cytotoxicity was found in THP-1Blue cells at concentrations up to 50 µM) | IC50 ([1]; Homo sapiens): 7.9 ± 1.6 µM
NC(=O)c1cnn2c1nc(OCc1ccccc1Cl)c1ccccc12 [13d] | 227 to 229 | – | –
